Assay results: patent US10167279B2 (NOVARTIS AG, priority 2014, dated 2019)

biological target: C-Raf FL (Homo sapiens (Human), UniProt P04049, Y340E/Y341E); assay: In vitro Raf activity determination (Alpha Screen, phospho-MEK), C-Raf FL (full length, Y340E/Y341E); format: biochemical; conditions: ATP 1 μM; 60 min pre-incubation; 1 hour reaction; column head does not say FL or TR
Outline: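 Read-out is AlphaScreen luminescence using rabbit anti-p-MEK with protein A beads after EDTA stop, with IC50 fitted by non-linear regression. Reaction: Sf9-derived C-Raf plus biotinylated E. coli MEK1 K97R substrate, pH 7.5 Tris/MgCl2/DTT buffer, compound preincubated 60 min at room temperature.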

Sequence of C-Raf FL (P04049 whole entry Y340E/Y341E): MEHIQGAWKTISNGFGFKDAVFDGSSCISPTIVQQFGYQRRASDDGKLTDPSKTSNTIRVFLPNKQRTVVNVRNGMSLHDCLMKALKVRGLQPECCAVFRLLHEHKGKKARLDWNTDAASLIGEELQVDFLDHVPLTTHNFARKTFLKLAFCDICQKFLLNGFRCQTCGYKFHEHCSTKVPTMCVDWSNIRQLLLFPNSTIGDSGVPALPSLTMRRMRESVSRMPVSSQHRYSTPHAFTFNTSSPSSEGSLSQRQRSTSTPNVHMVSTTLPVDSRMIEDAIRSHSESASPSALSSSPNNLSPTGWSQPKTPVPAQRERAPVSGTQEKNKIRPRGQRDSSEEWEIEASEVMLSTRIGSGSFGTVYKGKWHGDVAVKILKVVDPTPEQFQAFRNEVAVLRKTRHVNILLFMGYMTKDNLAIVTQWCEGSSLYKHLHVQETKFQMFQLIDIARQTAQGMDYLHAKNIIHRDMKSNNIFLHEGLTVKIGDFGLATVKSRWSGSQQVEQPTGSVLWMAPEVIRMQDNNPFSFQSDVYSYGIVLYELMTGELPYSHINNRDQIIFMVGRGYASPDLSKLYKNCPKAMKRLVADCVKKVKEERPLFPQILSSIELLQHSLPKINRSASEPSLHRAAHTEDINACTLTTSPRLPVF
Sequence of C-Raf FL (P63104 whole entry partner): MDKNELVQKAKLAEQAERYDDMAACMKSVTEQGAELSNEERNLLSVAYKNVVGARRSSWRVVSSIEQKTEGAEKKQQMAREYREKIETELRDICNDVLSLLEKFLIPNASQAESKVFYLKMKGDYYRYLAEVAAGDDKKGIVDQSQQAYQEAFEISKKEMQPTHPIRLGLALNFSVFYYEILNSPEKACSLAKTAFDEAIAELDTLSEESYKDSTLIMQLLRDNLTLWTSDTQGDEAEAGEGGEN

Structure (SMILES) | IC50
COc1cc(C(=O)Nc2ccc(C)c(-c3cc(OCCO)nc(C4CCOCC4)c3)c2)ncn1 [Example 267, N-(3-(2-(2-hydroxyethoxy)-6-(tetrahydro-2H-pyran-4-yl)pyridin-4-yl)-4-methylphenyl)-6-methoxypyrimidine-4-carboxamide] | 0.005 nM
Cc1ccc(NC(=O)c2ccnc(C(F)(F)CF)c2)cc1-c1cc(OCCO)nc(C2CCOCC2)c1 [Example 268, N-(3-(2-(2-hydroxyethoxy)-6-(tetrahydro-2H-pyran-4-yl)pyridin-4-yl)-4-methylphenyl)-2-(1,1,2-trifluoroethyl) isonicotinamide] | 0.02 nM
Cc1ccc(NC(=O)c2ccnc(C(C)(F)F)c2)cc1-c1cc(OCCO)nc(C2CCOCC2)c1 [Example 269, 2-(1,1-difluoroethyl)-N-(3-(2-(2-hydroxyethoxy)-6-(tetrahydro-2H-pyran-4-yl)pyridin-4-yl)-4-methylphenyl) isonicotinamide] | 0.03 nM
Cc1ccc(NC(=O)c2ccnc(C(C)(C)C#N)c2)cc1-c1cc(OCCO)nc(C2CCOCC2)c1 [Example 270, 2-(2-cyanopropan-2-yl)-N-(3-(2-(2-hydroxyethoxy)-6-(tetrahydro-2H-pyran-4-yl)pyridin-4-yl)-4-methylphenyl) isonicotinamide] | 0.09 nM
Cc1ccc(NC(=O)c2cnnc(C(F)(F)F)c2)cc1-c1cc(OCCO)nc(C2CCOCC2)c1 [Example 271, N-(3-(2-(2-hydroxyethoxy)-6-(tetrahydro-2H-pyran-4-yl)pyridin-4-yl)-4-methylphenyl)-6-(trifluoromethyl) pyridazine-4-carboxamide] | 0.02 nM
Cc1ccc(NC(=O)c2cc(C(F)(F)F)ccn2)cc1-c1cc(OCCO)nc(C2CCOCC2)c1 [Example 272, N-(3-(2-(2-hydroxyethoxy)-6-(tetrahydro-2H-pyran-4-yl)pyridin-4-yl)-4-methylphenyl)-4-(trifluoromethyl) picolinamide] | 0.05 nM
Cc1ccc(NC(=O)c2ccnc(C(F)(F)CF)c2)cc1-c1cc(OC[C@H](O)CO)nc(C2CCOCC2)c1 [Example 273, (R)-N-(3-(2-(2,3-dihydroxypropoxy)-6-(tetrahydro-2H-pyran-4-yl)pyridin-4-yl)-4-methylphenyl)-2-(1,1,2-trifluoroethyl) isonicotinamide] | 0.01 nM
Cc1ccc(NC(=O)c2cc(C(F)(F)F)cnn2)cc1-c1cc(OC[C@H](O)CO)nc(C2CCOCC2)c1 [Example 274] | 0.03 nM
Cc1ccc(NC(=O)c2ccnc(C3(C(F)(F)F)CC3)c2)cc1-c1cc(OC[C@H](O)CO)nc(C2CCOCC2)c1 [Example 275, (R)-N-(3-(2-(2,3-dihydroxypropoxy)-6-(tetrahydro-2H-pyran-4-yl)pyridin-4-yl)-4-methylphenyl)-2-(1-(trifluoromethyl)cyclopropyl) isonicotinamide] | 0.2 nM

Now from value to molecule:

IC50 | Structure (SMILES)
0.06 nM | Cc1ccc(NC(=O)c2cc(C(F)(F)F)ncn2)cc1-c1cc(OC[C@H](O)CO)nc(C2CCOCC2)c1 [Example 276, (R)-N-(3-(2-(2,3-dihydroxypropoxy)-6-(tetrahydro-2H-pyran-4-yl)pyridin-4-yl)-4-methylphenyl)-6-(trifluoromethyl) pyrimidine-4-carboxamide]
0.2 nM | Cc1ccc(NC(=O)c2cnc(C(F)(F)F)cn2)cc1-c1cc(OC[C@H](O)CO)nc(C2CCOCC2)c1 [Example 277, (R)-N-(3-(2-(2,3-dihydroxypropoxy)-6-(tetrahydro-2H-pyran-4-yl)pyridin-4-yl)-4-methylphenyl)-5-(trifluoromethyl) pyrazine-2-carboxamide]
0.05 nM | Cc1ccc(NC(=O)c2cc(Cl)ccn2)cc1-c1cc(OC[C@H](O)CO)nc(C2CCOCC2)c1 [Example 278, (R)-4-chloro-N-(3-(2-(2,3-dihydroxypropoxy)-6-(tetrahydro-2H-pyran-4-yl)pyridin-4-yl)-4-methylphenyl) picolinamide]
0.07 nM | Cc1ccc(NC(=O)c2ccnc(C#N)c2)cc1-c1cc(OC[C@H](O)CO)nc(C2CCOCC2)c1 [Example 279, (R)-2-cyano-N-(3-(2-(2,3-dihydroxypropoxy)-6-(tetrahydro-2H-pyran-4-yl)pyridin-4-yl)-4-methylphenyl) isonicotinamide]
0.07 nM | Cc1ccc(NC(=O)c2ccnc(Cl)c2)cc1-c1cc(OC[C@H](O)CO)nc(C2CCOCC2)c1 [Example 280, (R)-2-chloro-N-(3-(2-(2,3-dihydroxypropoxy)-6-(tetrahydro-2H-pyran-4-yl)pyridin-4-yl)-4-methylphenyl) isonicotinamide]
0.05 nM | Cc1ccc(NC(=O)c2cncc(C(F)(F)F)c2)cc1-c1cc(OC[C@H](O)CO)nc(C2CCOCC2)c1 [Example 281, (R)-N-(3-(2-(2,3-dihydroxypropoxy)-6-(tetrahydro-2H-pyran-4-yl)pyridin-4-yl)-4-methylphenyl)-5-(trifluoromethyl) nicotinamide]
0.3 nM | Cc1ccc(NC(=O)c2cc(C(F)(F)F)c(Cl)cn2)cc1-c1cc(OC[C@H](O)CO)nc(C2CCOCC2)c1 [Example 282, (R)-5-chloro-N-(3-(2-(2,3-dihydroxypropoxy)-6-(tetrahydro-2H-pyran-4-yl)pyridin-4-yl)-4-methylphenyl)-4-(trifluoromethyl) picolinamide]
0.07 nM | Cc1ccc(NC(=O)c2cc(C(F)(F)F)ccn2)cc1-c1cc(OC[C@H](O)CO)nc(C2CCOCC2)c1 [Example 283, (R)-N-(3-(2-(2,3-dihydroxypropoxy)-6-(tetrahydro-2H-pyran-4-yl)pyridin-4-yl)-4-methylphenyl)-4-(trifluoromethyl) picolinamide]
0.2 nM | Cc1ccc(NC(=O)c2cc(C(F)(F)F)ccn2)cc1-c1cc(OC[C@@H](O)CO)nc(C2CCOCC2)c1 [Example 284]
0.9 nM | CCOc1nnc(-c2cc(NC(=O)c3ccc4c(c3)CNC4)ccc2C)cc1C1CCOCC1 [Example 285, N-(3-(6-ethoxy-5-(tetrahydro-2H-pyran-4-yl)pyridazin-3-yl)-4-methylphenyl) isoindoline-5-carboxamid]
0.297 nM | Cc1ccc(NC(=O)c2ccnc(C(F)(F)F)c2)cc1-c1cc(N2CCOC2=O)nc(C2(O)CCOCC2)c1 [Example 286, N-(3-(2-(4-hydroxytetrahydro-2H-pyran-4-yl)-6-(2-oxooxazolidin-3-yl)pyridin-4-yl)-4-methylphenyl)-2-(trifluoromethyl)isonicotinamide]
0.393 nM | Cc1ccc(NC(=O)c2ccnc(C(F)(F)F)c2)cc1-c1cc(NCCO)nc(C2(O)CCOCC2)c1 [Example 287, N-(3-(2-((2-hydroxyethyl)amino)-6-(4-hydroxytetrahydro-2H-pyran-4-yl)pyridin-4-yl)-4-methylphenyl)-2-(trifluoromethyl)isonicotinamide]
0.6 nM | CCOc1ncc(-c2cc(NC(=O)c3ccnc(C(C)(C)C#N)c3)ccc2C)cc1C1(CF)CCOC1 (centres unmarked) [Example 288, 2-(2-cyanopropan-2-yl)-N-(3-(6-ethoxy-5-(3-(fluoromethyl)tetrahydrofuran-3-yl)pyridin-3-yl)-4-methylphenyl)isonicotinamide]
2 nM | CCOc1ncc(-c2cc(NC(=O)c3ccnc(C(C)(C)C#N)c3)ccc2C)cc1C1(CO)CCOC1 (centres unmarked) [Example 289, 2-(2-cyanopropan-2-yl)-N-(3-(6-ethoxy-5-(3-(hydroxymethyl)tetrahydrofuran-3-yl)pyridin-3-yl)-4-methylphenyl) isonicotinamide]
